Test results taken from US11260118B2, “Immunogenic peptide composition” (Cancer Research Malaysia, priority 2017, dated 2022).
Where no end group is shown, it is not given here.

What was measured:
[1] = tested on: mouse macrophage cell line RAW264.7
[2] = tested on: target cells 195M (MAGED4B) and C666.1F (FJX1)
Protocol: The cytotoxic ELISPOT assay was used to study the response of peptide-pulsed CTLs derived from the patients to target cell lines overexpressing the target antigens. CTLs were co-cultured with target cells, where this culture was re-suspended in complete culture media supplemented with IL-7 and interleukin 2 (IL-2) proteins and applied to IFNγ and granzyme B ELISPOT plates. The cell suspension was further incubated to allow the interaction between CTLs and target cell line before determining the potential killing ability of CTLs against FJX1 and MAGED4b expressing target cells.
Dendritic cells from patients were isolated and subsequently used as antigen presenting cells. Briefly, PBMCs were re-suspended in macrophage-serum free media (M-SFM) (Gibco, Thermo Fisher, MA, USA), seeded in a 6-well plate and incubated for 1 hour at 37° C. After incubation, non-adherent cells from PBMCs were collected, rinsed in HBSS and then re-suspended in complete culture media contained 10 ng/ml IL-7. Approximately 2-5×10^5 cells per well were seeded into round bottom 96-well plates. Cells were then incubated for 2-5 days at 37° C. for T cell expansion with the addition of 50 μg/ml of peptides. The adherent cells resulting from the incubation, were cultured at 37° C. for 2-5 days in M-SFM in the presence of 100 ng/ml GM-CSF and 25 ng/ml IL-4 to induce differentiation of dendritic cells (DCs). […]

HNSCC = settings: cited from earlier work
[3] = tested on: recurrent or metastatic HNSCC; settings: human, in vivo; cited from earlier work

With RLSLLLVIL [M6] the “degree of inflammation / iNOS accumulation” value [1] was “low”.

For SLYNTYATL [HIV peptide], the “IFNγ and granzyme B secretion / cytotoxic T cell response after in vitro peptide stimulation” value [2] was “induces increased levels of IFNγ and Granzyme B secretion”.

For nivolumab, the “overall survival rate of HNSCC patients” value (HNSCC; 16% in standard therapy group) is given as 36%, the “grade 3 or grade 4 events versus standard therapy” value (HNSCC; human, in vivo) is given as “fewer grade 3 or grade 4 events” and the “response rate of HNSCC patients” value (HNSCC; human, in vivo) is given as 13%. For the same substance, the “survival longer than standard therapy group” value (HNSCC; human, in vivo) was 2.4 months.

For pembrolizumab, the “objective response rate (complete or partial response of tumour size reduction)” value [3] is given as 16%.

In the case of WLLALGSLLAL [F1, WLLALGSLLAL], the “degree of inflammation / iNOS accumulation” value [1] is reported as “low” and the “production of nitrite, fold lower than LPS positive control” value [1] is reported as 10 fold.
